Data published in the NIST ThermoML archive (doi:10.1016/j.fluid.2013.03.008).
Numbers after ± are expanded uncertainties.

Conditions: Liquid, Closed cell (Static) method

CCCCCCCCCCCCCCCC(=O)OCC [ethyl hexadecanoate]
Conditions	vapor or sublimation pressure [kPa]
412.63 K	0.1 ± 0.01
419.36 K	0.15 ± 0.01
425.07 K	0.2 ± 0.01
433.31 K	0.3 ± 0.01
438.71 K	0.4 ± 0.01
442.68 K	0.5 ± 0.01
448.35 K	0.65 ± 0.02
452.99 K	0.8 ± 0.02
457.98 K	1 ± 0.02
462.64 K	1.2 ± 0.03
468.07 K	1.5 ± 0.03

CCCCCCCCCCCCCC(=O)OCC [ethyl tetradecanoate]
Conditions	vapor or sublimation pressure [kPa]
392.17 K	0.1 ± 0.01
398.52 K	0.15 ± 0.01
404.27 K	0.2 ± 0.01
410.95 K	0.3 ± 0.01
416.1 K	0.4 ± 0.01
419.65 K	0.5 ± 0.01
425.69 K	0.65 ± 0.02
430.55 K	0.8 ± 0.02
434.91 K	1 ± 0.02
439.1 K	1.2 ± 0.03
443.82 K	1.5 ± 0.03
